The structures appear in SMILES notation.

What is called IC50 is the concentration that gives 50% inhibition. In general, IC90 refers to the concentration needed for an effect of 90%.

The test system of this assay is Mycobacterium tuberculosis H37Rv growth inhibition, no glycerol. In words: Mycobacterium tuberculosis H37Rv growth inhibition, no glycerol, confirmatory dose response (AID 449764).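 On all read-outs here: growth read after 7 days of incubation.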 The note with it: for IC90: measured here: IC90 growth inhibition.

For the molecule `O=C(CCl)NCc1cc(-c2ccc(Cl)cc2)no1`, the IC50 was 0.35 µM and the IC90 is > 100 µM.

On to `Cc1cc2cc(CNC(=O)NC3CCCCC3)ccc2[nH]1`, for which the IC50 is 36 µM and the IC90 amounted to 53.7 µM. On the same counts, the results for `CCOC(=O)N1CCN(C(=O)CSc2nnc(-c3ccc(Cl)s3)o2)CC1` are 25.2 µM and 29.9 µM. On the same counts, the results for `CCOC(=O)CN[C@H]1CCC2C3CC=C4C[C@@H](O)CC[C@]4(C)C3CC[C@@]21C` (stereo not given in full) are 3.53 µM and 14.3 µM. In the same order, the values of `CN(c1ccccc1)S(=O)(=O)c1cccc(C(=O)NCc2ccccc2CN2CCCC2)c1` are 63.2 µM and 77.9 µM. On to `CCCCOc1ccc(C(=O)N/N=C/c2ccc(OCCN3CCCCC3)c(OC)c2)cc1`, for which the concentration for half-maximal inhibition (IC50) is 43.3 µM and the IC90 is 47.8 µM. On the same counts, the results for `COc1cccc(Nc2ccc([N+](=O)[O-])c3nonc23)c1` are 9.9 µM and 14.5 µM. In the same order, the values of `O=C(N/N=C/c1ccc([N+](=O)[O-])o1)c1sc2ccccc2c1Cl` are 5.69 µM and 8.72 µM. `Cc1cc(=O)oc2cc(Oc3ccc([N+](=O)[O-])cc3C(F)(F)F)ccc12`: the IC50 was 50 µM and the IC90 was > 100 µM.

As to `CCCCCC1CC(CC(=O)NC(=S)Nc2ccc([N+](=O)[O-])cc2)C(=O)O1` (stereo not given), the IC90 is > 100 µM.

As for `CCNCC(=O)N1c2ccccc2CCc2ccc(NC(=O)OC(C)C)cc21`, the IC50 is 53.7 µM and the IC90 stood at 77 µM. As to `Cc1ccc(S(=O)(=O)N(C)c2ccc(OCC(=O)OCc3ccc(C#N)cc3)cc2)cc1`, the IC50 was 17.3 µM and the IC90 was 28.3 µM. In the same order, the values of `Cc1cc2c(ccc3c2no[n+]3[O-])nn1` are 17.4 µM and 22.8 µM.

Turning to `C#CCOc1ccc2c(c1)c(C(C)=O)c(C)n2Cc1ccccc1`, the IC90 was > 100 µM. Turning to `COc1c(C)cc(C(=O)C2CCCN(Cc3ccccn3)C2)cc1C` (stereo not given), the IC50 is 20.2 µM and the IC90 was determined as 29.7 µM.

For `O=Nc1c2nc3ccccc3n(O)c-2c2ccccc12`, the IC50 is 12.2 µM and the IC90 came to 13.7 µM. With `O=C(/C(=C/c1ccc(Cl)cc1)c1nc2ccccc2[nH]1)c1cccs1`, the IC50 was 35.5 µM and the IC90 was 96.8 µM. For `Cn1nc(C(F)(F)F)c2cc(NC(=O)OCC(C)(C)C)sc21`, the IC50 is 22.8 µM and the IC90 amounted to 43.1 µM.

Take `CC1CC2=C(CC1/C=N/NC(N)=S)C(C)(C)CCC2` (stereo not given): the IC50 is 18.3 µM and the IC90 turned out to be 26.8 µM. On the same counts, the results for `COc1cccc(C(=O)NC2CC3CCCC(C2)N3CC(=O)Nc2ccc(N(C)C)cc2)c1` (stereo not given) are 21.8 µM and 24.4 µM. On the same counts, the results for `CCC1(c2ccccc2)ON(c2c(Br)cccc2Br)C1=O` (stereo not given) are 40.2 µM and 77.3 µM. On the same counts, the results for `CC1(C)c2cc(Cl)ccc2-n2c1cc(O)c(-c1ccccc1)c2=O` are 8.61 µM and 18.1 µM.

`O=C(c1cc2cc(Cl)ccc2[nH]1)N1CCN(Cc2ccc3c(c2)OCO3)CC1`: the IC50 was 24.2 µM and the IC90 is > 25 µM. On the same counts, the results for `Oc1ccc(-[n+]2c(-c3ccccc3)cc(-c3ccccc3)cc2-c2ccccc2)cc1` are 14.3 µM and 17.2 µM. On the same counts, the results for `Cc1ccc(-n2[nH]c(C)c(C=Nc3ccc(S(=O)(=O)Nc4nccs4)cc3)c2=O)c(C)c1` are 6.3 µM and 12 µM. On the same counts, the results for `CCn1cc([N+](=O)[O-])c(C(=O)N2N=C(c3ccc4ccccc4c3)CC2c2ccccc2O)n1` (stereo not given) are 50.1 µM and > 100 µM. Take `N#CCn1c(CCl)nc2ccccc2c1=O`: the IC50 was 22.8 µM and the IC90 came out at 25.8 µM. Consider `Clc1ccc(SCc2cc(N3CCOCC3)nc(-c3ccccn3)n2)cc1`, for which the IC50 is 6.68 µM and the IC90 amounted to 11.6 µM. In the same order, the values of `Cc1cccc(NS(=O)(=O)c2ccc(C(=O)N3CCN(c4ccccc4O)CC3)cc2)c1C` are 85.5 µM and > 100 µM. On the same counts, the results for `Cc1cccc(/C=C/c2onc(C)c2[N+](=O)[O-])n1` are 20.2 µM and 26.8 µM. In the same order, the values of `CC(=O)c1c(C)n(C)c2ccc(OC(=O)c3ccc([N+](=O)[O-])cc3)cc12` are 19.8 µM and > 100 µM. As to `CCOC(=O)CSc1nn(-c2ccccc2)c(=S)s1`, the IC50 is 6.12 µM and the IC90 was 6.9 µM.

Regarding `CCOC(=O)c1cc(-c2ccccc2)nc2c1c(C)nn2-c1ccccn1`, the IC50 is 19.3 µM and the IC90 is 44.3 µM. On the same counts, the results for `COc1cnc(-c2ccccn2)nc1Oc1ccc(Cl)c2ccccc12` are 0.67 µM and 1.38 µM. In the case of `CC1C/C(=C\c2cccnc2)C(=O)/C(=C/c2cccnc2)C1` (stereo not given), the IC50 was 5.16 µM and the IC90 is 8.18 µM.

Turning to `Cc1ccc(C(=O)N/C(=C/c2ccco2)C(=O)OCN2C(=O)c3ccccc3C2=O)cc1`, the IC50 was 16.3 µM and the IC90 was determined as 40.4 µM.

In the case of `CC(C)(C)c1ccc(-c2nc(-c3ccncc3)no2)cc1`, the IC50 was 35.2 µM and the IC90 turned out to be 47.6 µM. On the same counts, the results for `c1ccc(-c2nc3nonc3nc2-c2ccccc2)cc1` are 28.9 µM and 39.4 µM. With `COC(=O)c1ccc(COC(=O)CCc2nc(-c3ccccc3)c(-c3ccccc3)o2)cc1`, the IC50 is 44.9 µM and the IC90 was > 100 µM.

As for `CCSc1ccc2c(c1)N(CCCN1CCN(C)CC1)c1ccccc1S2`, the IC50 is 23.1 µM and the IC90 was determined as 27.2 µM. On the same counts, the results for `O=C(COc1cccc(Oc2ccccc2)c1)Nc1ncccn1` are 50.4 µM and > 100 µM.

Consider `CCOc1ccc2nc(N/C(N)=N/C(=S)Nc3cccc(C)c3)nc(C)c2c1`, for which the IC50 is 36 µM and the IC90 was > 100 µM. In the case of `CCOC(=O)Cn1c(-c2ccccc2)ccc(C#N)c1=O`, the IC50 is 10.4 µM and the IC90 was > 50 µM. As for `CCOC(=O)Cc1csc(NC(=O)c2c(O)c3c(n(CC(C)C)c2=O)CCCC3)n1`, the IC50 was 18.5 µM and the IC90 is 36.7 µM. For the molecule `O=C(CCN1C(=O)/C(=C/c2ccccc2)SC1=S)Nc1ccccn1`, the IC90 was > 100 µM. As for `Cc1cccc(NC(=O)CCSc2nnc(Cc3ccccc3)o2)c1`, the IC50 was 38.1 µM and the IC90 was > 100 µM.

With `CCOc1ccc(-n2cc(-c3ccccc3)c3c(=O)[nH]cnc32)cc1`, the IC50 was 84 µM and the IC90 is > 100 µM.

With `Cc1ncc(C23CC4CC(CC(C4)C2)C3)[nH]1`, the IC50 was 76.1 µM and the IC90 amounted to 96.7 µM.

`CC(C)c1ccc2c(c1)CCC1C(C)(CN)CCCC21C` (stereo not given): the IC50 was 17.7 µM and the IC90 turned out to be 26.7 µM. On the same counts, the results for `CN(/N=C/c1cc(Br)cc(Br)c1O)c1cccc(C(F)(F)F)n1` are 7.9 µM and 11.2 µM. On the same counts, the results for `Cc1cc(=O)oc2c(C)c(OCC(=O)N3CCN(C(=O)C4COc5ccccc5O4)CC3)ccc12` (stereo not given) are 77.1 µM and > 100 µM. `Nc1cc(Cl)c2nonc2c1[N+](=O)[O-]`: the IC50 was 9.11 µM and the IC90 stood at 11.7 µM.

With `COC(=O)c1[nH]c2cc(OC)ccc2c1NC(=O)CN1CCN(c2cccc(C)c2)C(C)C1` (stereo not given), the IC50 is 38.1 µM and the IC90 was determined as 50.9 µM. On the same counts, the results for `CCOC(=O)C1CCCN(c2ncnc3c2cnn3-c2ccc(OC)cc2)C1` (stereo not given) are 5.82 µM and 10.3 µM.

As for `OC(COC(c1ccc(Cl)cc1)c1ccc(Cl)cc1)CN1CCc2ccccc2C1` (stereo not given), the concentration for half-maximal inhibition (IC50) is 20.7 µM and the IC90 turned out to be 27.6 µM. In the same order, the values of `COC(=O)[C@H](CC(C)C)NC(=O)c1cc2c(cn1)[nH]c1ccccc12` are 19.9 µM and 39.8 µM. On the same counts, the results for `O=C(OCC(=O)c1cccs1)C1=COCCO1` are 29.9 µM and > 100 µM. Regarding `Oc1ccc2ccccc2c1C1Nc2cccc3cccc(c23)N1`, the IC90 is > 100 µM. `CN(c1ccccc1)c1ccc(/C=C/[N+](=O)[O-])cc1`: the IC50 was 15 µM and the IC90 was 28 µM. On the same counts, the results for `CCN1C(N(C)CCc2c[nH]c3ccccc23)=N[C@@H](c2cccc(C(F)(F)F)c2)C(C(=O)OC)=C1C` are 22 µM and 25 µM. In the same order, the values of `COC(=O)c1cc(=O)n(-c2ccc(F)cc2)c(=Nc2ccc(F)cc2)s1` are 0.46 µM and 1.24 µM.

For `Cc1nc(NCCc2ccccc2)c2oc3ccccc3c2n1`, the 50% inhibitory concentration (IC50) is 7.3 µM and the IC90 came to 13.3 µM. In the same order, the values of `CC(c1nc2ccccc2c(=O)[nH]1)N(C)CCOc1ccc(Cl)cc1` (stereo not given) are 40.7 µM and 55.5 µM. In the same order, the values of `O=C(c1ccccc1)c1nn(-c2ccc(Cl)cc2)c(=O)cc1C(F)(F)F` are 20.1 µM and 31.1 µM. On to `Cc1cc(Cl)ccc1OCCCC(=O)NO`, for which the IC50 is 65.1 µM and the IC90 was > 100 µM. Turning to `O=C(CCS(=O)(=O)c1ccc(F)cc1)Nc1nc(-c2ccccn2)cs1`, the IC50 was 12.8 µM and the IC90 worked out at 29.1 µM. On the same counts, the results for `O=c1[nH]c(=O)n(C2CCCO2)cc1F` (stereo not given) are 57.1 µM and > 100 µM. On the same counts, the results for `Cn1c(=O)c(C(=O)NNC(=O)c2cccc(Cl)c2)c(O)c2ccccc21` are 2.78 µM and 3.14 µM.

`COc1ccc(C2=Nn3c(nnc3-c3ccccc3F)SC2)cc1OC1CCCC1`: the half-maximal inhibitory concentration (IC50) is 19.5 µM and the IC90 turned out to be 25.4 µM. On the same counts, the results for `CCCCCCCNC1=CC(=O)CC(c2ccccc2)C1` (stereo not given) are 39.7 µM and 61.3 µM.

Turning to `CCCC(=O)Nc1ccc(C(=O)/C=C/c2ccc(SC)cc2)cc1`, the IC50 is 64.3 µM and the concentration for an effect of 90% (IC90) is 85.4 µM.

Consider `Cc1cc(C)c(C)c(N=Nc2nc3ccccc3n2C)c1C`, for which the IC50 is 11.2 µM and the IC90 amounted to 12.6 µM.

Source of the values: PubChem BioAssay AID449764 (Southern Research Specialized Biocontainment Screening …, 2010).
